According to US11098029B2, “5-alkyl pyrrolidine orexin receptor agonists” (Merck Sharp & Dohme Corp., priority 2019, dated 2021):

Target: human OX2R (Homo sapiens (Human), UniProt O43614)
Experiment: IPOne (IP-One, Cisbio) orexin receptor agonist assay in CHO cells expressing human OX2R
Settings: for Emax: CHO; for Emax / Emax (%): hOX2R_IP, percentage of mean max effect of a reference compound at 1 uM (100% activity vs Orexin A)
Protocol: Both the OX1R and/or OX2R G-coupled protein receptors (GPCRs) couple through the Gaq signaling pathway, which ultimately promotes calcium mobilization via inositol triphosphate (IP3) production.
In a typical experiment, the OX1 and OX2 receptor agonist activity is determined in accordance with the following general experimental method. Chinese hamster ovary (CHO) cells expressing human OX1R and/or the human OX2R were grown in Iscove's modified DMEM containing glutaMAX®, 1% G418, 100 U/mL penicillin, 100 μg/mL streptomycin and 10% heat-inactivated qualified fetal bovine serum (FBS). […] During this incubation, IP-one detection reagents were prepared (38:1:1 lysis buffer:D2:AB-cryptate reagents).
For each compound, data were fit to a four parameter logistic fit (ActivityBase software) and the EC50 was reported as the inflection point of the resulting curve.

human OX2R, sequence (O43614 whole entry): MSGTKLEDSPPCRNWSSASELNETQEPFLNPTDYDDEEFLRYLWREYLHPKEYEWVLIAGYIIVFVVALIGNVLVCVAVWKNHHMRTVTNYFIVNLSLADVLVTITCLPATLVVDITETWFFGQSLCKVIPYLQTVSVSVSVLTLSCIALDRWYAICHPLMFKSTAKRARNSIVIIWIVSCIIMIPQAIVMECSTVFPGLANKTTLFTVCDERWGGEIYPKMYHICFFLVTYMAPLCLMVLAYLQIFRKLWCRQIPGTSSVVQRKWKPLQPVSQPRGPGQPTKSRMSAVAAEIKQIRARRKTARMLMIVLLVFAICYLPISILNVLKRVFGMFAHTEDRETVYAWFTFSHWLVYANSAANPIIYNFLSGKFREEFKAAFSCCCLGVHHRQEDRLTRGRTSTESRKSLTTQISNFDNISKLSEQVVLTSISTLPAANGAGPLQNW

Emax	IC50	Emax (%)	SMILES
103%	–	–	CC[C@@H]1C[C@H](NS(C)(=O)=O)[C@H](CO[C@H]2CC[C@@H](c3ccccc3)CC2)N1C(=O)OC (racemic) [Example 43, methyl (2R,3S,5R)-5-ethyl-3-(methylsulfonamido)-2-((((CIS)-4-phenylcyclohexyl)oxy)methyl)-pyrrolidine-1-carboxylate]
99%	224 nM	–	COC(=O)N1[C@@H](CO[C@H]2CC[C@@H](c3ccccc3)CC2)[C@@H](NS(C)(=O)=O)CC12CC2 (relative stereo) [Example 41, methyl (CIS)-6-(methylsulfonamido)-5-((((CIS)-4-phenylcyclohexyl)oxy)methyl)-4-azaspiro[2.4]heptane-4-carboxylate]
100%	316 nM	–	CCC1(CC)C[C@@H](NS(C)(=O)=O)[C@@H](CO[C@H]2CC[C@@H](c3ccccc3)CC2)N1C(=O)OC (relative stereo) [Example 42, methyl (CIS)-2,2-diethyl-4-(methylsulfonamido)-5-((((CIS)-4-phenylcyclohexyl)oxy)methyl)-pyrrolidine-1-carboxylate]
–	–	102%	C=C[C@@H]1C[C@H](NS(C)(=O)=O)[C@H](CO[C@H]2CC[C@@H](c3ccccc3)CC2)N1C(=O)OC (relative stereo) [Example 48, methyl (CIS)-3-(methylsulfonamido)-2-((((CIS)-4-phenylcyclohexyl)oxy)methyl)-5-vinylpyrrolidine-1-carboxylate]
101%	15.2 nM	–	CCNC(=O)N1[C@H](C)C[C@H](NS(C)(=O)=O)[C@@H]1COC1CCC(C(C)C)CC1 (stereo partly drawn) [Example 1, (2R,3S,5R)—N-ethyl-2-(((4-isopropylcyclohexyl)oxy)methyl)-5-methyl-3-(methylsulfonamido)-pyrrolidine-1-carboxamide]
100%	–	–	CCNC(=O)N1[C@H](C)C[C@H](NS(C)(=O)=O)[C@@H]1COC1CCC(C(F)(F)F)CC1 (stereo partly drawn) [Example 2, (2R,3S,5R)—N-ethyl-5-methyl-3-(methylsulfonamido)-2-(((4-(trifluoromethyl)-cyclohexyl)oxy)methyl)pyrrolidine-1-carboxamide]
98%	–	–	COC(=O)N1[C@H](C)C[C@H](NS(C)(=O)=O)[C@@H]1COC1CCC(C(C)C)CC1 (stereo partly drawn) [Example 3, methyl (2R,3S,5R)-2-(((4-isopropylcyclohexyl)oxy)methyl)-5-methyl-3-(methylsulfonamido)pyrrolidine-1-carboxylate]
–	–	102%	COC(=O)N1[C@H](C)C[C@H](NS(C)(=O)=O)[C@@H]1CO[C@H]1CC[C@@H](C(C)C)CC1 [Example 4, methyl (2R,3S,5R)-2-((((1s,4S)-4-isopropylcyclohexyl)oxy)methyl)-5-methyl-3-(methylsulfonamido)pyrrolidine-1-carboxylate]
101%	–	–	CC(C)OC(=O)N1[C@H](C)C[C@H](NS(C)(=O)=O)[C@@H]1COC1CCC(C(C)C)CC1 (stereo partly drawn) [Example 5, isopropyl (2R,3S,5R)-2-(((4-isopropylcyclohexyl)oxy)meth-yl)-5-methyl-3-(methylsulfonamido)pyrrolidine-1-carboxylate]
100%	45.5 nM	–	CCOC(=O)N1[C@H](C)C[C@H](NS(C)(=O)=O)[C@@H]1COC1CCC(C(C)C)CC1 (stereo partly drawn) [Example 7, ethyl (2R,3S,5R)-2-(((4-isopropylcyclohexyl)oxy)meth-yl)-5-methyl-3-(methylsulfonamido)pyrrolidine-1-carboxylate]
101%	–	–	CCOC(=O)N1[C@H](C)C[C@H](NS(=O)(=O)N(C)C)[C@@H]1COC1CCC(C(C)C)CC1 (stereo partly drawn) [Example 8, ethyl (2R,3S,5R)-3-((N,N-dimethylsulfamoyl)amino)-2-(((4-isopropylcyclohexyl)oxy)meth-yl)-5-methylpyrrolidine-1-carboxylate]
101%	–	–	CC(C)C1CCC(OC[C@H]2[C@@H](NS(C)(=O)=O)C[C@@H](C)N2C(=O)OCC(F)F)CC1 (stereo partly drawn) [Example 9, 2,2-difluoroethyl (2R,3S,5R)-2-(((4-isopropylcyclohexyl)oxy)meth-yl)-5-methyl-3-(methylsulfonamido)pyrrolidine-1-carboxylate]
99%	–	–	CC(C)C1CCC(OC[C@H]2[C@@H](NS(C)(=O)=O)C[C@@H](C)N2C(=O)OCCF)CC1 (stereo partly drawn) [Example 10, 2-fluoroethyl (2R,3S,5R)-2-(((4-isopropylcyclohexyl)oxy)meth-yl)-5-methyl-3-(methylsulfonamido)pyrrolidine-1-carboxylate]
99%	–	–	COC(=O)N1[C@H](C)C[C@H](NS(=O)(=O)N(C)C)[C@@H]1COC1CCC(C(F)(F)F)CC1 (stereo partly drawn) [Example 11, methyl (2R,3S,5R)-3-((N,N-dimethylsulfamoyl)amino)-5-methyl-2-(((4-(trifluoromethyl)cyclohexyl)oxy)methyl)pyrrolidine-1-carboxylate]
99%	–	–	COC(=O)N1[C@H](C)C[C@H](NS(C)(=O)=O)[C@@H]1COC1CCC(CC(F)(F)F)CC1 (stereo partly drawn) [Example 12, methyl (2R,3S,5R)-5-methyl-3-(methylsulfonamido)-2-(((4-(2,2,2-trifluoroethyl)cyclohexyl)oxy)methyl)pyrrolidine-1-carboxylate]
100%	–	–	CC(C)C1CCC(OC[C@H]2[C@@H](NS(=O)(=O)N(C)C)C[C@@H](C)N2C(=O)OCC(F)F)CC1 (stereo partly drawn) [Example 14, 2,2-difluoroethyl (2R,3S,5R)-3-((N,N-dimethylsulfamoyl)amino)-2-(((4-isopropylcyclohexyl)oxy)meth-yl)-5-methylpyrrolidine-1-carboxylate]
–	–	101%	COC(=O)N1[C@H](C)C[C@H](NS(C)(=O)=O)[C@@H]1CO[C@H]1CC[C@@H](c2ccccc2)CC1 [Example 15, methyl (2R,3S,5R)-5-methyl-3-(methylsulfonamido)-2-((((1s,4S)-4-phenylcyclohexyl)oxy)-methyl)pyrrolidine-1-carboxylate]
–	–	101%	CNS(=O)(=O)N[C@H]1C[C@@H](C)N(C(=O)OCC(F)F)[C@H]1CO[C@H]1CC[C@@H](c2ccccc2)CC1 [Example 16, 2,2-difluoroethyl (2R,3S,5R)-5-methyl-3-((N-methylsulfamoyl)amino)-2-((((1s,4S)-4-phenylcyclohexyl)oxy)methyl)pyrrolidine-1-carboxylate]
–	–	102%	C[C@@H]1C[C@H](NS(=O)(=O)N(C)C)[C@H](CO[C@H]2CC[C@@H](c3ccccc3)CC2)N1C(=O)OCC(F)F [Example 17, 2,2-difluoroethyl (2R,3S,5R)-3-((N,N-dimethylsulfamoyl)amino)-5-methyl-2-((((1s,4S)-4-phenylcyclohexyl)oxy)methyl)pyrrolidine-1-carboxylate]

SMILES	Emax	IC50	Emax (%)
CNS(=O)(=O)N[C@H]1C[C@@H](C)N(C(=O)OC(C)C)[C@H]1COC1CCC(C(C)C)CC1 (stereo partly drawn) [Example 6, isopropyl (2R,3S,5R)-2-(((4-isopropylcyclohexyl)oxy)meth-yl)-5-methyl-3-((N-methylsulfamoyl)amino) pyrrolidine-1-carboxylate]	–	–	100%
CNS(=O)(=O)N[C@H]1C[C@@H](C)N(C(=O)OCC(F)F)[C@H]1COC1CCC(C(C)C)CC1 (stereo partly drawn) [Example 13, 2,2-difluoroethyl (2R,3S,5R)-2-(((4-isopropylcyclohexyl)oxy)meth-yl)-5-methyl-3-((N-methylsulfamoyl)amino)pyrro-lidine-1-carboxylate]	–	–	101%
